Measurements from PubChem BioAssay (NCI).
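Dose response: 5 concentrations. Exposure: 48 h. Format: 96-well plates. Endpoint: linear interpolation; highest concentration if not reached. The concentration for 50% growth inhibition is given as GI50. TGI denotes the concentration required for complete inhibition of growth.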

Columns and labels:
Assay in all cases: NCI-60 cell line screen, 48 h
OVCAR-8 ovarian = test system: OVCAR-8 ovarian
HCT-15 colon = test system: HCT-15 colon
HOP-92 NSCLC = test system: HOP-92 NSCLC
DU-145 prostate = test system: DU-145 prostate
SNB-19 CNS = test system: SNB-19 CNS
CAKI-1 renal = test system: CAKI-1 renal
BT-549 breast = test system: BT-549 breast
OVCAR-4 ovarian = test system: OVCAR-4 ovarian
HCC-2998 colon = test system: HCC-2998 colon
SR leukemia = test system: SR leukemia
786-0 renal = test system: 786-0 renal
SK-OV-3 ovarian = test system: SK-OV-3 ovarian
OVCAR-3 ovarian = test system: OVCAR-3 ovarian
K-562 leukemia = test system: K-562 leukemia
KM12 colon = test system: KM12 colon
NCI-H460 lung = test system: NCI-H460 lung
SF-268 CNS = test system: SF-268 CNS
UACC-62 melanoma = test system: UACC-62 melanoma
SF-539 CNS = test system: SF-539 CNS
UACC-257 melanoma = test system: UACC-257 melanoma
M14 melanoma = test system: M14 melanoma
HS 578T breast = test system: HS 578T breast
SW-620 colon = test system: SW-620 colon
PC-3 prostate = test system: PC-3 prostate
HT29 colon = test system: HT29 colon
SK-MEL-28 melanoma = test system: SK-MEL-28 melanoma
MDA-MB-435 = test system: MDA-MB-435
LOX IMVI melanoma = test system: LOX IMVI melanoma
RXF 393 renal = test system: RXF 393 renal
OVCAR-5 ovarian = test system: OVCAR-5 ovarian
TK-10 renal = test system: TK-10 renal
NCI-H23 lung = test system: NCI-H23 lung
T-47D breast = test system: T-47D breast
UO-31 renal = test system: UO-31 renal
SK-MEL-2 melanoma = test system: SK-MEL-2 melanoma
ACHN renal = test system: ACHN renal
NCI/ADR-RES ovarian = test system: NCI/ADR-RES ovarian
A498 renal = test system: A498 renal
SK-MEL-5 melanoma = test system: SK-MEL-5 melanoma
MCF7 breast = test system: MCF7 breast
SNB-75 CNS = test system: SNB-75 CNS
SN12C renal = test system: SN12C renal
RPMI-8226 leukemia = test system: RPMI-8226 leukemia
EKVX NSCLC = test system: EKVX NSCLC
HL-60(TB) leukemia = test system: HL-60(TB) leukemia
MDA-MB-231 breast = test system: MDA-MB-231 breast
A549 NSCLC = test system: A549 NSCLC
COLO 205 colon = test system: COLO 205 colon
NCI-H226 lung = test system: NCI-H226 lung
U251 CNS = test system: U251 CNS
CCRF-CEM leukemia = test system: CCRF-CEM leukemia
HCT-116 colon = test system: HCT-116 colon
NCI-H522 lung = test system: NCI-H522 lung
MALME-3M melanoma = test system: MALME-3M melanoma
MOLT-4 leukemia = test system: MOLT-4 leukemia
HOP-62 NSCLC = test system: HOP-62 NSCLC

Work on `O=c1ncc(I)cn1C1CC(O)C(CO)O1` (stereo unspecified) yielded a GI50 (OVCAR-8 ovarian) of 2610 µM, a TGI (OVCAR-8 ovarian) greater than 3250 µM and a GI50 (HCT-15 colon) of 1680 µM. For the same molecule, the TGI (HCT-15 colon) was greater than 3250 µM, the GI50 (HOP-92 NSCLC) was greater than 3250 µM and the TGI (HOP-92 NSCLC) was greater than 3250 µM. The GI50 (DU-145 prostate) was 1530 µM, the TGI (DU-145 prostate) was greater than 3250 µM and the GI50 (SNB-19 CNS) was greater than 3250 µM. The TGI (SNB-19 CNS) was greater than 3250 µM, the GI50 (CAKI-1 renal) was 1470 µM and the TGI (CAKI-1 renal) was greater than 3250 µM. For the same molecule, the GI50 (BT-549 breast) was 1510 µM, the TGI (BT-549 breast) was greater than 3250 µM and the GI50 (OVCAR-4 ovarian) was 1510 µM. For the same molecule, the TGI (OVCAR-4 ovarian) was greater than 3250 µM, the GI50 (HCC-2998 colon) was 2910 µM and the TGI (HCC-2998 colon) was greater than 3250 µM. For the same molecule, the GI50 (SR leukemia) was 1170 µM, the TGI (SR leukemia) was greater than 3250 µM and the GI50 (786-0 renal) was 3100 µM. It also gave a TGI (786-0 renal) greater than 3250 µM, a GI50 (SK-OV-3 ovarian) of 2100 µM and a TGI (SK-OV-3 ovarian) greater than 3250 µM. It also gave a GI50 (OVCAR-3 ovarian) of 1070 µM, a TGI (OVCAR-3 ovarian) greater than 3250 µM and a GI50 (K-562 leukemia) of 1220 µM. It also gave a TGI (K-562 leukemia) greater than 3250 µM, a GI50 (KM12 colon) of 1740 µM and a TGI (KM12 colon) greater than 3250 µM. For the same molecule, the GI50 (NCI-H460 lung) was 1540 µM, the TGI (NCI-H460 lung) was greater than 3250 µM and the GI50 (SF-268 CNS) was 2110 µM. For the same molecule, the TGI (SF-268 CNS) was greater than 3250 µM, the GI50 (UACC-62 melanoma) was 1480 µM and the TGI (UACC-62 melanoma) was greater than 3250 µM. For the same molecule, the GI50 (SF-539 CNS) was 2360 µM, the TGI (SF-539 CNS) was greater than 3250 µM and the GI50 (UACC-257 melanoma) was greater than 3250 µM. It also gave a TGI (UACC-257 melanoma) greater than 3250 µM, a GI50 (M14 melanoma) of 1110 µM and a TGI (M14 melanoma) greater than 3250 µM. It also gave a GI50 (HS 578T breast) greater than 3250 µM, a TGI (HS 578T breast) greater than 3250 µM and a GI50 (SW-620 colon) of 1130 µM. It also gave a TGI (SW-620 colon) greater than 3250 µM, a GI50 (PC-3 prostate) greater than 3250 µM and a TGI (PC-3 prostate) greater than 3250 µM. It also gave a GI50 (HT29 colon) of 1830 µM, a TGI (HT29 colon) greater than 3250 µM and a GI50 (SK-MEL-28 melanoma) of 3150 µM. The TGI (SK-MEL-28 melanoma) was greater than 3250 µM, the GI50 (MDA-MB-435) was 1020 µM and the TGI (MDA-MB-435) was greater than 3250 µM. It also gave a GI50 (LOX IMVI melanoma) of 982 µM, a TGI (LOX IMVI melanoma) greater than 3250 µM and a GI50 (RXF 393 renal) greater than 3250 µM. For the same molecule, the TGI (RXF 393 renal) was greater than 3250 µM, the GI50 (OVCAR-5 ovarian) was greater than 3250 µM and the TGI (OVCAR-5 ovarian) was greater than 3250 µM. For the same molecule, the GI50 (TK-10 renal) was greater than 3250 µM, the TGI (TK-10 renal) was greater than 3250 µM and the GI50 (NCI-H23 lung) was 1620 µM. The TGI (NCI-H23 lung) was greater than 3250 µM, the GI50 (T-47D breast) was 2220 µM and the TGI (T-47D breast) was greater than 3250 µM. It also gave a GI50 (UO-31 renal) of 711 µM, a TGI (UO-31 renal) of 1760 µM and a GI50 (SK-MEL-2 melanoma) greater than 3250 µM. It also gave a TGI (SK-MEL-2 melanoma) greater than 3250 µM, a GI50 (ACHN renal) of 3120 µM and a TGI (ACHN renal) greater than 3250 µM. For the same molecule, the GI50 (NCI/ADR-RES ovarian) was 1750 µM, the TGI (NCI/ADR-RES ovarian) was greater than 3250 µM and the TGI (A498 renal) was greater than 3250 µM. The GI50 (SK-MEL-5 melanoma) was 2000 µM, the TGI (SK-MEL-5 melanoma) was greater than 3250 µM and the GI50 (MCF7 breast) was 1430 µM. The TGI (MCF7 breast) was greater than 3250 µM, the GI50 (SNB-75 CNS) was greater than 3250 µM and the TGI (SNB-75 CNS) was greater than 3250 µM. For the same molecule, the GI50 (SN12C renal) was 2710 µM, the TGI (SN12C renal) was greater than 3250 µM and the GI50 (RPMI-8226 leukemia) was greater than 3250 µM. It also gave a TGI (RPMI-8226 leukemia) greater than 3250 µM, a GI50 (EKVX NSCLC) greater than 3250 µM and a TGI (EKVX NSCLC) greater than 3250 µM. The GI50 (HL-60(TB) leukemia) was 613 µM, the TGI (HL-60(TB) leukemia) was greater than 3250 µM and the GI50 (MDA-MB-231 breast) was greater than 3250 µM. The TGI (MDA-MB-231 breast) was greater than 3250 µM, the GI50 (A549 NSCLC) was 2460 µM and the TGI (A549 NSCLC) was greater than 3250 µM. The GI50 (COLO 205 colon) was 1210 µM, the TGI (COLO 205 colon) was greater than 3250 µM and the GI50 (NCI-H226 lung) was greater than 3250 µM. It also gave a TGI (NCI-H226 lung) greater than 3250 µM, a GI50 (U251 CNS) of 1160 µM and a TGI (U251 CNS) greater than 3250 µM. The GI50 (CCRF-CEM leukemia) was 709 µM, the TGI (CCRF-CEM leukemia) was greater than 3250 µM and the GI50 (HCT-116 colon) was 1310 µM. It also gave a TGI (HCT-116 colon) greater than 3250 µM, a GI50 (NCI-H522 lung) of 668 µM and a TGI (NCI-H522 lung) of 1250 µM. For the same molecule, the GI50 (MALME-3M melanoma) was greater than 3250 µM, the TGI (MALME-3M melanoma) was greater than 3250 µM and the GI50 (MOLT-4 leukemia) was 1170 µM. The TGI (MOLT-4 leukemia) was greater than 3250 µM, the GI50 (HOP-62 NSCLC) was 2940 µM and the TGI (HOP-62 NSCLC) was greater than 3250 µM.
